From article PMC12643529 (ACS Infectious Diseases, 2025)

Columns and labels:
[1] = system: bloodstream form of T. brucei; test: alamarBlue (resazurin) antitrypanosomal assay; format: cell-based, Trypanosoma brucei; settings: for selectivity index (SI) T. brucei: SI = IC50 MRC-5/IC50 T. brucei (resazurin assay); for IC50: bloodstream form, 72 h, alamarBlue/resazurin, error as σ
[2] = system: promastigote form of L. major; test: MTT-based antileishmanial assay, promastigotes; format: cell-based, Leishmania major; settings: for selectivity index (SI) L. major: SI = IC50 MRC-5/IC50 L. major promastigotes; for IC50: promastigotes, 72 h, MTT, error as σ
Description: The antileishmanial activity of the compounds against the promastigote form of L. major, the […] was determined using an MTT-based assay (Sigma-Aldrich). Stock solutions of the compounds were prepared in DMSO with the final DMSO percentage in each well maintained below 1%. 4 × 10^6 parasites per mL were incubated at 28 °C in 96-well plates (50 μL/well) either alone or in the presence of increasing concentrations of compounds DMSO for 72 h. After the incubation period, 10 μL of MTT (5 mg/mL) was added to each well, and the parasites were incubated for 4 h at 28 °C. Subsequently, cell lysis was performed using 50 μL/well of 20% SDS. […] Data were presented as the average of at least three independent measurements, each conducted under triplicate conditions. […] “single marker” […] S7

MRC-5 cells = test: alamarBlue cytotoxicity assay, MRC-5; format: cell-based; settings: 72 h
THP-1 cells = test: alamarBlue cytotoxicity assay, PMA-differentiated THP-1; format: cell-based, human; settings: PMA-differentiated THP-1, 72 h
[3] = system: intracellular amastigote form of L. major; test: Luciferase assay, intracellular amastigotes in THP-1 macrophages; format: cell-based, Leishmania major; settings: for selectivity index (SI) THP-1: SI = IC50 THP-1/IC50 L. major amastigotes; for IC50: intracellular amastigotes in THP-1 macrophages, 72 h, luciferase
Description: The antileishmanial activity of the compounds against the intracellular form of L. major was evaluated using the Luciferase Assay System kit from Promega. THP-1 cells were seeded at a density of 3 × 10^5 cells/mL in 96-well plates (100 μL/well) and treated with 20 ng/mL PMA (phorbol 12-myristate 13-acetate, Sigma) for 48 h to induce differentiation. Postdifferentiation, the cells were washed, and fresh medium was added (100 μL/well) before being reincubated. Following an additional 24 h, the wells were washed, and 50 μL of L. major parasites at a density of 1.5 × 10^6 parasites/mL (suspended in RPMI-1640 medium 5% hiFBS and 5% penicillin/streptomycin) were added to the wells. The plates were then incubated at 35 °C in 5% CO2. After 24 h, the wells were washed three times with PBS, and fresh medium with increasing concentrations of compounds was added (100 μL/well). After another 72 h of incubation, the cells were then treated with 25 μL of lysis buffer and stored at −80 °C. Following 24 h, 25 μL of luciferase enzyme substrate was added to each well, and the luciferase activity of the amastigotes was determined using a TECAN Infinite F200 microplate reader. […] Data were presented as the average of at least three independent measurements, each conducted under triplicate conditions.
Parasite and cell culturing […]
Leishmania major (MHOM/IL/80/Friedlin) promastigotes and its derivative luminescent strain L. major LucRE9 with the luciferase gene integrated into the parasite genome (LUC) were cultured at 28 °C, 5 % CO2 in modified RPMI-1640 medium (Invitrogen, Carlsbad, CA) supplemented with 10 % hiFBS6, including […] blasticidin in the LucRE9 strain. 7 Parasites were maintained in culture in their […] growth phase (below 2 million T. brucei parasites per mL, ,10 million L. major parasites per mL for promastigotes experiments), and in the stationary phase , 20 million L. major parasites per mL for THP -1 infection experiments.
MRC-5 cell line (human lung fibroblast) was grown in monolayer at 37 °C, 5 % CO2 in DMEM medium (1 g/L glucose) supplemented with 10% hiFBS, 100 U/mL penicillin, […] streptomycin and 2 mM L-glutamine.8
THP-1 cells (human monocytic cell line) were maintained in RPMI-1640 medium supplemented with 10% heat-inactivated fetal bovine serum (hiFBS) and 5 % penicillin/streptomycin (37 °C, 5 % CO2, and 100 % humidity). […]

HeLa cells = test: alamarBlue antiproliferative assay, HeLa; format: cell-based, human; settings: for IC50: Homo sapiens, HeLa, 72 h, alamarBlue; for selectivity index (SI) HeLa: SI = IC50 MRC-5/IC50 HeLa
HT-29 cells = test: alamarBlue antiproliferative assay, HT-29; format: cell-based, human; settings: for IC50: Homo sapiens, HT-29, 72 h, alamarBlue; for selectivity index (SI) HT-29: SI = IC50 MRC-5/IC50 HT-29
[4] = system: F21T K+ (human telomeric G-quadruplex, potassium buffer); format: binding; settings: ligand 10 μM, oligonucleotide 200 nM, 10 mM KCl
[5] = system: F21T Na+ (human telomeric G-quadruplex, sodium buffer); format: binding; settings: ligand 10 μM, oligonucleotide 200 nM, 100 mM NaCl
[6] = system: FEbr1T (T. brucei G-quadruplex); test: FRET melting assay, FEbr1T; format: binding; settings: ligand 10 μM, oligonucleotide 200 nM, 10 mM KCl
[7] = system: FMycT (c-Myc promoter G4); test: FRET melting assay, FMycT; format: binding; settings: ligand 10 μM, oligonucleotide 200 nM, 1 mM KCl
[8] = system: Fmt6363T (human mitochondrial G-quadruplex); test: FRET melting assay, Fmt6363T; format: binding; settings: ligand 10 μM, oligonucleotide 200 nM, 10 mM KCl
[9] = system: F10T (hairpin duplex DNA); format: binding; settings: ligand 10 μM, oligonucleotide 200 nM, 10 mM KCl
[10] = system: F21T (DNA, G4) GGGTTAGGGTTAGGGTTAGGG; test: FRET melting; settings: 10 mM Li cacodylate, compound 10 µM, DNA 200 nM
[11] = system: FEbr1T (DNA, G4) GGGCAGGGGGTGATGGGGAGGAGCCAGGG; test: FRET melting; settings: K+ (10 mM KCl), 90 mM LiCl; 10 mM Li cacodylate; compound 10 µM, DNA 200 nM
[12] = system: FMycT (DNA, G4) TTGAGGGTGGGTAGGGTGGGTAA; test: FRET melting; settings: K+ (1 mM KCl), 99 mM LiCl; 10 mM Li cacodylate; compound 10 µM, DNA 200 nM

Structure (SMILES)	selectivity index (SI) T. brucei [1]	selectivity index (SI) L. major [2]	IC50 ([1]; Trypanosoma brucei)	IC50 ([2]; Leishmania major)	IC50 (MRC-5 cells; MRC5, human lung fibroblasts)	IC50 (HeLa cells)	selectivity index (SI) HeLa (HeLa cells)	IC50 (HT-29 cells)	selectivity index (SI) HT-29 (HT-29 cells)	ΔTm F21T K+ [4]	ΔTm F21T Na+ [5]	ΔTm FEbr1T [6]	ΔTm FMycT [7]	ΔTm Fmt6363T [8]	ΔTm F10T [9]	also measured
COS(=O)(=O)[O-].Cc1cc2c3c([n+](C)c4ccc(F)cc4c3c1)-c1cc(F)ccc1N2C [RHPS4, 3,11-Difluoro-6,8,13-Trimethyl-8H-Quino[4,3,2-Kl]Acridinium Methosulfate, reference compound]	11.77	93.64														IC50 [1]: 0.35 ± 0.06 µM; IC50 [2]: 0.044 ± 0.015 µM; IC50 (MRC-5 cells; human lung fibroblasts): 4.12 ± 0.52 µM; IC50 (THP-1 cells): 214 ± 3.36 µM; selectivity index (SI) MRC-5 ([3]; SI = IC50 MRC-5/IC50 L. major amastigotes): 137.33; selectivity index (SI) THP-1 [3]: 7,131; IC50 [3]: 0.03 ± 0.02 µM
Cn1cccc1-c1ccc(/C=C/c2sc3ccccc3[n+]2C)s1 [compound 2f]	6.0	6.0	0.61 ± 0.045 µM	0.61 ± 0.092 µM	3.68 ± 0.17 µM											
C[n+]1c(/C=C/c2ccc(-c3ccc(-c4ccc(N(c5ccccc5)c5ccccc5)cc4)cc3)o2)sc2ccccc21.[I-] [compound 2d]		9.8	0.01 ± 0.005 µM	0.33 ± 0.017 µM	3.24 ± 0.14 µM	5.28 ± 0.11 µM	0.62	3.79 ± 0.13 µM	0.86	18.5 °C	22.9 ± 0.9 °C	20.5 °C	16.7 ± 0.7 °C	18.5 ± 0.9 °C	1.0 ± 0.1 °C	ΔTm ([10]; K+ (10 mM KCl), 90 mM LiCl): 18.5 ± 1.9 °C; ΔTm ([10]; Na+ (100 mM NaCl)): 22.9 ± 0.9 °C; ΔTm [11]: 20.5 ± 1.3 °C; ΔTm [12]: 16.7 ± 0.7 °C
C[n+]1c(/C=C/c2ccc(N(c3ccccc3)c3ccccc3)cc2)sc2ccccc21.[I-] [compound 2c]			0.34 ± 0.13 µM			8.89 ± 1.59 µM	0.58	8.91 ± 0.88 µM	0.58	12.7 ± 0.4 °C	9.4 ± 0.5 °C	13.5 °C	8.6 ± 1.0 °C	10.2 ± 0.5 °C	0.7 ± 0.1 °C	
CN(C)c1ccc(/C=C/c2sc3ccccc3[n+]2C)c2ccccc12.[I-] [2g]		23.9	0.02 ± 0.015 µM	0.17 ± 0.04 µM	4.01 ± 0.09 µM	29.1 ± 1.05 µM	0.14	89.5 ± 9.55 µM	0.04	9.7 ± 0.2 °C	3.4 ± 0.5 °C	8.9 ± 0.5 °C	3.0 ± 1.1 °C	7.7 ± 0.3 °C	0.4 ± 0.1 °C	ΔTm ([10]; Na+ (100 mM NaCl)): 3.4 ± 0.5 °C; ΔTm [12]: 3.0 ± 1.1 °C
CCCCCCCCCCCCCCCCOP(=O)([O-])OCC[N+](C)(C)C [miltefosine]				5.71 ± 0.46 µM												IC50 (THP-1 cells; Homo sapiens): 55.19 ± 0.11 µM; IC50 ([3]; Leishmania major): 5.1 ± 0.56 µM; selectivity index (SI) THP-1 [3]: 10.82
C[C@@H]1[C@H](O)[C@@H](C)/C=C/C=C/C=C/C=C/C=C/C=C/C=C/[C@H](O[C@@H]2O[C@H](C)[C@@H](O)[C@H](N)[C@@H]2O)C[C@@H]2O[C@](O)(C[C@@H](O)C[C@@H](O)[C@H](O)CC[C@@H](O)C[C@@H](O)CC(=O)O[C@H]1C)C[C@H](O)[C@H]2C(=O)O [AmB, Amphotericin B]				1.92 ± 0.05 µM												IC50 (THP-1 cells; Homo sapiens): 9.89 ± 1.98 µM; IC50 ([3]; Leishmania major): 4.41 ± 1.96 µM; selectivity index (SI) THP-1 [3]: 2.24
Cn1cccc1/C=C/c1sc2ccccc2[n+]1C.[I-] [compound 2e]	4.1	39.6	2.29 ± 0.31 µM	0.24 ± 0.029 µM	9.4 ± 1.06 µM	78 ± 8.26 µM	0.12	76.4 ± 1.44 µM	0.12							
C[n+]1c(/C=C/c2cc3c4c(c2)CCCN4CCC3)sc2ccccc21.[I-] [compound 2h]			0.00026 ± 0.00017 µM			0.84 ± 0.01 µM	0.09	1 ± 0.16 µM	0.08	16.9 °C	9.4 ± 0.3 °C	14.1 °C	12.6 ± 0.9 °C	15.0 ± 0.4 °C	0.9 ± 0.4 °C	
C[n+]1c(/C=C/c2ccc(-c3ccc(N(c4ccccc4)c4ccccc4)cc3)s2)sc2ccccc21 [compound 2i]	2.12	86.2	1.83 ± 0.06 µM	0.045 ± 0.012 µM	3.88 ± 0.17 µM											
C[n+]1c(/C=C/c2ccccc2)sc2ccccc21.[I-] [compound 2a]	5.5	4.2	0.37 ± 0.18 µM	0.48 ± 0.11 µM	2.02 ± 0.12 µM											
Cc1ccc(C(=O)Nc2ccc(S(=O)(=O)O)c3cc(S(=O)(=O)O)cc(S(=O)(=O)O)c23)cc1NC(=O)c1cccc(NC(=O)Nc2cccc(C(=O)Nc3cc(C(=O)Nc4ccc(S(=O)(=O)O)c5cc(S(=O)(=O)O)cc(S(=O)(=O)O)c45)ccc3C)c2)c1 [suramin, reference compound]			0.0042 ± 0.0003 µM													
CSc1ccc(OCc2ncc([N+](=O)[O-])n2C)cc1 [fexinidazole, reference compound]			0.88 ± 0.02 µM													
